Assay results: patent US12048686B2, “Compositions and methods for activating NRF2-dependent gene expression” (The University of Chicago, priority 2018, dated 2024)

Key:
[1] = target: T1, PGK1 (Homo sapiens, UniProt P00558); experiment: Dye-based thermal denaturation assay; assay type: binding; conditions: recombinant PGK1, compound 20 μM
T1 sequence (P00558 1-417): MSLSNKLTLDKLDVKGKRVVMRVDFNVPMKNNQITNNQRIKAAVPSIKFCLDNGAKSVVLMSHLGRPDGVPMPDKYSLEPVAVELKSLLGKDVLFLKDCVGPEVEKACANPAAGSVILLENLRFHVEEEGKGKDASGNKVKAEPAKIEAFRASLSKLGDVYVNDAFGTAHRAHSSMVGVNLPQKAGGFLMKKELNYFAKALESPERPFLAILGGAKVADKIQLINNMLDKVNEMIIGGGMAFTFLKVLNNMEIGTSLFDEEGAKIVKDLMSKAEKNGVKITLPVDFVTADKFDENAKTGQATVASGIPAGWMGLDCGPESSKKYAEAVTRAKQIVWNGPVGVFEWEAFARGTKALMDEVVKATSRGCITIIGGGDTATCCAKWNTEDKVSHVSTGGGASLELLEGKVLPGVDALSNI
Procedure: FIG. 5A-E. A photoactivatable affinity probe-based approach identifies PGK1 as the relevant cellular target of CBR-470-1. (a) Silver staining and anti-biotin Western blots of ammonium sulfate fractionated lysates from UV-irradiated IMR32 cells treated with 5 μM for 1 hour with or without CBR-470-1 competition (250 μM) (n=3). Shown on the right are initial proteomic target results from gel-band digestion and LC-MS/MS analysis. (b) Dye-based thermal denaturation assay with recombinant PGK1 in the presence CBR-470-1 (20 μM) or vehicle alone (n=3). Calculated Tm values are listed. (c, d) Dose-dependent thermal stability assay of recombinant PGK1 and GAPDH in the presence of increasing doses of CBR-470-1 near the Tm of both proteins (57° C.) (c) (n=5) or room temperature (d) (n=3). Western blot of sample supernatants after centrifugation (13,000 rpm) detected total PGK1 and GAPDH protein, which were plotted in Prism (below). (e) ARE-LUC reporter activity in HEK293T cells with transient shRNA.
Dye-based thermal denaturation assay. Thermal denaturation experiments were performed using a Protein Thermal Shift Dye Kit (ThermoFisher, 4461146). […] Fluorescence values were recorded using a Viia7 Real-Time PCR instrument according to supplied instructions.

[2] = tested on: IMR32 cells; experiment: Quantitative metabolomic profiling of IMR32 cells; assay type: cell-based
Procedure: Quantitative Metabolomic Profiling. For polar metabolite profiling experiments, cells were grown in 15 cm plates and cultured in RPMI supplemented with 10% FBS, 2 mM L-glutamine and 1% P/S prior to media replacement containing either vehicle (DMSO) or the indicated dose of CBR-470-1. Following incubation for the appropriate time, cells were scraped into ice-cold PBS and isolated by centrifugation at 1,400 g at 4° C. Cell pellets were resuspended in 300 μl of an 80:20 mixture of cold MeOH/H2O, an internal standard was added (10 nmol d3-serine; Sigma Aldrich), and the suspension was sonicated (Fisher Scientific FB-505) for 5 seconds followed by a 10 minute centrifugation at 16,000 g. […] Metabolite peak transitions and retention times are listed in Table 2 and were confirmed by running standards for measured glycolytic, PPP, CAC and co-factor metabolites. 2-phosphoglycerate and 3-phosphoglycerate isomers were quantified in aggregate (2PG/3PG). Relative metabolite abundance was quantified by integrated peak area for the given MRM-transition, and all metabolite levels were normalized to internal standard extracted ion intensity values for d3-serine. These parameters were used to quantify all metabolites, with the exception of 1,3-BPG and MGx, which required chemical derivitization to stable intermediates prior to LC-MS/MS quantification, as previously reported^20, 33. […]

shift in PGK1 thermal stability [1]: consistent shift in PGK1 stability
Structure (SMILES): CC(C)CN[C@H]1CS(=O)(=O)C[C@@H]1S(=O)(=O)c1ccc(Cl)cc1 [CBR-470-1]
downstream metabolites (3PG, lactate) [2]: depletion of downstream metabolites | metabolite levels upstream of PGK1 (BPG, GAP) [2]: rapid increase in metabolite levels upstream of PGK1
